Calls of active or inactive are those of the source. The calls are words filed in the database; no cut-off is given here.
Key:
[1] = tested on: J774.A1; assay: Cytotoxicity against mouse J774A1 cells at 1 to 100 uM after 48 hrs by MTT assay; assay type: cell-based; settings: j774.a1, 48 h
[2] = Cytotoxicity against human HEK293 cells assessed as cell viability at 100 uM after 48 hrs by MTT assay relative to control; assay type: cell-based; settings: read-out: Activity
[3] = Cytotoxicity against human HEK293 cells assessed as cell viability at 4 uM after 48 hrs by MTT assay relative to control; assay type: cell-based; settings: read-out: Activity
[4] = tested on: Leishmania donovani; assay: Antileishmanial activity against axenic form of Leishmania donovani DD8 after 48 hrs by MTT assay; assay type: functional, organism-based; settings: DD8, 48 h
[5] = tested on: Leishmania donovani; assay: Antileishmanial activity against promastigote form of Leishmania donovani DD8 after 48 hrs by MTT assay; assay type: functional, organism-based; settings: DD8, 48 h
[6] = tested on: Leishmania donovani; assay: Antileishmanial activity against amastigote form of Leishmania donovani DD8 infected in mouse J774A1 cells at 100 uM after 48 hrs by ethidium bromide/acridine orange staining-based fluorescence microscopic analysis; assay type: functional, organism-based; settings: J774.A1
[7] = tested on: Leishmania donovani; assay: Antileishmanial activity against amastigote form of Leishmania donovani DD8 infected in mouse J774A1 cells at 10 uM after 48 hrs by ethidium bromide/acridine orange staining-based fluorescence microscopic analysis; assay type: functional, organism-based; settings: J774.A1
[8] = tested on: Leishmania donovani; assay: Antileishmanial activity against promastigote form of Leishmania donovani DD8 assessed as cell death at 200 uM from 12 to 48 hrs by ethidium bormide/acridine orange staining-based fluorescence microscopic analysis; assay type: functional, organism-based
[9] = tested on: Leishmania donovani; assay: Induction of necrosis in promastigote form of Leishmania donovani DD8 assessed as necrotic cells at 20 uM after 24 hrs by FITC-annexinV/PI-based flow cytometric analysis (reference value: 1.31%); assay type: functional
[10] = tested on: Leishmania donovani; assay: Induction of apoptosis in promastigote form of Leishmania donovani DD8 assessed as late apoptotic cells at 20 uM after 24 hrs by FITC-annexinV/PI-based flow cytometric analysis (reference value: 3.4%); assay type: functional
[11] = tested on: Leishmania donovani; assay: Induction of apoptosis in promastigote form of Leishmania donovani DD8 assessed as early apoptotic cells at 20 uM after 24 hrs by FITC-annexinV/PI-based flow cytometric analysis (reference value: 2.61%); assay type: functional
[12] = tested on: Leishmania donovani; assay: Induction of apoptosis in promastigote form of Leishmania donovani DD8 assessed as viable cells at 20 uM after 24 hrs by FITC-annexinV/PI-based flow cytometric analysis (reference value: 92.68%); assay type: functional
[13] = tested on: Leishmania donovani; assay: Induction of oxidative stress in axenic form of Leishmania donovani DD8 assessed as increase in ROS level at 20 uM by CM-H2DCFDA-based flow cytometric analysis; assay type: functional, organism-based
[14] = tested on: Leishmania donovani; assay: Induction of oxidative stress in promastigote form of Leishmania donovani DD8 assessed as increase in ROS level at 20 uM by CM-H2DCFDA-based flow cytometric analysis; assay type: functional, organism-based
[15] = tested on: Leishmania donovani; assay: Induction of oxidative stress in axenic form of Leishmania donovani DD8 assessed as change in cell surface topology at 20 uM by CM-H2DCFDA-based flow cytometric analysis; assay type: functional, organism-based
[16] = tested on: Leishmania donovani; assay: Induction of oxidative stress in promastigote form of Leishmania donovani DD8 assessed as change in cell surface topology at 20 uM by CM-H2DCFDA-based flow cytometric analysis; assay type: functional, organism-based
[17] = tested on: Leishmania donovani; assay: Induction of oxidative stress in amastigote form of Leishmania donovani DD8 assessed as increase in ROS level at 5 to 20 uM up to 48 hrs by CM-H2DCFDA-based fluorimetric analysis; assay type: functional, organism-based
[18] = tested on: Leishmania donovani; assay: Induction of oxidative stress in promastigote form of Leishmania donovani DD8 assessed as increase in ROS level at 5 to 20 uM up to 48 hrs by CM-H2DCFDA-based fluorimetric analysis; assay type: functional, organism-based
[19] = target: Trypanothione reductase (Leishmania donovani) (UniProt P39050); assay: Inhibition of Leishmania donovani DD8 axenic form trypanothione reductase assessed as decrease in reduced thiol level at 100 uM after 48 hrs by DTNB-based spectrophotometric analysis relative to control
Sequence of Trypanothione reductase (Leishmania donovani) (P39050 whole entry): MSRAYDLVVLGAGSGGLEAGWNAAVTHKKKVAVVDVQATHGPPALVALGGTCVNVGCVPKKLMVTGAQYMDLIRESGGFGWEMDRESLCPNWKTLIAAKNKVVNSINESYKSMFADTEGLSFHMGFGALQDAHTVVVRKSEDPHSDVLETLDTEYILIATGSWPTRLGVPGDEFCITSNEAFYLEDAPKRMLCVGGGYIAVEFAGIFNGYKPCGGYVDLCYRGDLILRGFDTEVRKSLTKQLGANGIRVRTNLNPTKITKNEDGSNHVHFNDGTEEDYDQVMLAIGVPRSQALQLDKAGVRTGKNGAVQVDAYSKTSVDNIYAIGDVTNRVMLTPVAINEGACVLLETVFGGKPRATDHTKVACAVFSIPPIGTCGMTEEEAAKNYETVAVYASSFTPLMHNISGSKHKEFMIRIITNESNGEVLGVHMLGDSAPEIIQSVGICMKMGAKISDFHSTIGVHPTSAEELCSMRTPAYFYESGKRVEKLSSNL

[20] = target: Trypanothione reductase (Leishmania donovani) (UniProt P39050); assay: Inhibition of Leishmania donovani DD8 axenic form trypanothione reductase assessed as decrease in reduced thiol level at 100 uM after 12 hrs by DTNB-based spectrophotometric analysis relative to control
[21] = target: Trypanothione reductase (Leishmania donovani) (UniProt P39050); assay: Inhibition of Leishmania donovani DD8 axenic form trypanothione reductase assessed as decrease in reduced thiol level at 3.125 uM after 48 hrs by DTNB-based spectrophotometric analysis relative to control
[22] = target: Trypanothione reductase (Leishmania donovani) (UniProt P39050); assay: Inhibition of Leishmania donovani DD8 axenic form trypanothione reductase assessed as decrease in reduced thiol level at 3.125 uM after 12 hrs by DTNB-based spectrophotometric analysis relative to control
[23] = target: Trypanothione reductase (Leishmania donovani) (UniProt P39050); assay: Inhibition of Leishmania donovani DD8 promastigote form trypanothione reductase assessed as decrease in reduced thiol level at 100 uM after 48 hrs by DTNB-based spectrophotometric analysis relative to control
[24] = target: Trypanothione reductase (Leishmania donovani) (UniProt P39050); assay: Inhibition of Leishmania donovani DD8 promastigote form trypanothione reductase assessed as decrease in reduced thiol level at 100 uM after 12 hrs by DTNB-based spectrophotometric analysis relative to control
[25] = target: Trypanothione reductase (Leishmania donovani) (UniProt P39050); assay: Inhibition of Leishmania donovani DD8 promastigote form trypanothione reductase assessed as decrease in reduced thiol level at 3.125 uM after 48 hrs by DTNB-based spectrophotometric analysis relative to control
[26] = target: Trypanothione reductase (Leishmania donovani) (UniProt P39050); assay: Inhibition of Leishmania donovani DD8 promastigote form trypanothione reductase assessed as decrease in reduced thiol level at 3.125 uM after 12 hrs by DTNB-based spectrophotometric analysis relative to control

Row | inhibition [19] | inhibition [20] | Structure (SMILES) | Activity [1] | viability at 48 h, 100 µM [2] | viability at 48 h, 4 µM [3] | IC50 [4] | IC50 [5] | Activity [6] | Activity [7] | Activity [8] | Activity [9] | Activity [10] | Activity [11] | Activity [12] | Activity [13] | Activity [14] | Activity [15] | Activity [16] | Activity [17] | Activity [18] | other results
1 | 41.9% | 65.8% | COC(=O)C1=CO[C@@H](O[C@@H]2O[C@H](CO)[C@@H](O)[C@H](O)[C@H]2O)[C@@H]2[C@@H](C)[C@@H](OC(=O)/C=C/c3ccc(OC)cc3)[C@@H](O)[C@H]12 [ARBORTRISTOSIDE A] | Non-toxic | 71.2% | 95.5% | 7.26 µM | 3.26 µM | Active | Active | Active | 10.33% | 2.13% | 26.3% | 61.24% | Active | Active | Active | Active | Active | Active | inhibition [21]: 73.4%; inhibition [22]: 97.9%; inhibition [23]: 33.8%; inhibition [24]: 60.1%; inhibition [25]: 63.7%; inhibition [26]: 92.5%
2 | 46.9% | 67.9% | COC(=O)C1=CO[C@@H](O[C@@H]2O[C@H](CO)[C@@H](O)[C@H](O)[C@H]2O)[C@@H]2[C@@H](CO)[C@@H](OC(=O)/C=C/c3ccc(O)c(O)c3)[C@@H](O)[C@H]12 [ARBORTRISTOSIDE B] | Non-toxic | 54.8% | 93.6% | 7.63 µM | 3.5 µM | Active | Active | Active | 13.52% | 2.96% | 31.04% | 52.48% | Active | Active | Active | Active | Active | Active | inhibition [21]: 77.5%; inhibition [22]: 96.9%; inhibition [23]: 41.9%; inhibition [24]: 63.6%; inhibition [25]: 67.9%; inhibition [26]: 92.6%
3 | 51.7% | 67.8% | COC(=O)C1=CO[C@@H](O[C@@H]2O[C@H](CO)[C@@H](O)[C@H](O)[C@H]2O)[C@@H]2[C@@H](C)[C@@H](OC(=O)/C=C/c3ccc(O)cc3)[C@@H](O)[C@H]12 [ARBORTRISTOSIDE C] | Non-toxic | 48.6% | 89.6% | 9 µM | 5.02 µM | Active | Active | Active | 10% | 2.51% | 36.59% | 50.9% | Active | Active | Active | Active | Active | Active | inhibition [21]: 82.8%; inhibition [22]: 97.7%; inhibition [23]: 46.9%; inhibition [24]: 62.7%; inhibition [25]: 78.9%; inhibition [26]: 95.3%
